Experimental data published in ChEMBL document CHEMBL4334421, “Design, synthesis and biological evaluation of β-peptoid-capped HDAC inhibitors with anti-neuroblastoma and anti-glioblastoma activity” (Medchemcomm, 2019).

Tests used:
Histone deacetylase 1 = Histone deacetylase 1 (Homo sapiens, UniProt Q13547); assay: Inhibition of recombinant full length C-terminal FLAG/His-tagged human HDAC1 expressed in baculovirus infected Sf9 cells using Z-Lys(Ac)-AMC as substrate incubated for 90 mins followed by trypsin addition and measured after 30 mins by fluorescence based assay
Sequence of Histone deacetylase 1 (Q13547 whole entry): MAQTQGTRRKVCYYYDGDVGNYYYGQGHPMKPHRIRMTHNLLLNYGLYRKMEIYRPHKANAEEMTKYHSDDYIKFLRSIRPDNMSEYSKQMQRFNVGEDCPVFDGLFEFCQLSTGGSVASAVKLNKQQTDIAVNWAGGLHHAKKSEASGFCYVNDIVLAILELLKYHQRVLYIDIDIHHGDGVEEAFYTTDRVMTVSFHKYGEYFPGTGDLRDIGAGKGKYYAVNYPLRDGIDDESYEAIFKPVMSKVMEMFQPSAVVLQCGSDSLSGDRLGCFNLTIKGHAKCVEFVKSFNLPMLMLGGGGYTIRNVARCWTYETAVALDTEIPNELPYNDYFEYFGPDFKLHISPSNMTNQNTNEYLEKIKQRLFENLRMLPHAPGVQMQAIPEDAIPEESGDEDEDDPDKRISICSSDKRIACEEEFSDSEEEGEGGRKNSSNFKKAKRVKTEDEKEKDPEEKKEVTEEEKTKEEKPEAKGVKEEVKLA

SK-N-AS = assay: Antiproliferative activity against human SK-N-AS cells assessed as reduction in cell viability incubated for 72 hrs by cell-titer Glo assay; type: functional, cell-based
G55T2 [1] = assay: Antiproliferative activity against human G55T2 cells assessed as reduction in cell viability incubated for 72 hrs by WST-8 assay; type: functional, cell-based; details: G55T2, 72 h
IMR-32 = assay: Antiproliferative activity against human IMR32 cells assessed as reduction in cell viability incubated for 72 hrs by cell-titer Glo assay; type: functional, cell-based; details: IMR-32, 72 h
[2] = molecular target: T1, Protein deacetylase HDAC6 (Homo sapiens, UniProt Q9UBN7); assay: Inhibition of recombinant full length N-terminal GST-tagged human HDAC6 expressed in baculovirus infected Sf9 cells using Z-Lys(Ac)-AMC as substrate incubated for 90 mins followed by trypsin addition and measured after 30 mins by fluorescence based assay
T1 sequence (Q9UBN7 whole entry): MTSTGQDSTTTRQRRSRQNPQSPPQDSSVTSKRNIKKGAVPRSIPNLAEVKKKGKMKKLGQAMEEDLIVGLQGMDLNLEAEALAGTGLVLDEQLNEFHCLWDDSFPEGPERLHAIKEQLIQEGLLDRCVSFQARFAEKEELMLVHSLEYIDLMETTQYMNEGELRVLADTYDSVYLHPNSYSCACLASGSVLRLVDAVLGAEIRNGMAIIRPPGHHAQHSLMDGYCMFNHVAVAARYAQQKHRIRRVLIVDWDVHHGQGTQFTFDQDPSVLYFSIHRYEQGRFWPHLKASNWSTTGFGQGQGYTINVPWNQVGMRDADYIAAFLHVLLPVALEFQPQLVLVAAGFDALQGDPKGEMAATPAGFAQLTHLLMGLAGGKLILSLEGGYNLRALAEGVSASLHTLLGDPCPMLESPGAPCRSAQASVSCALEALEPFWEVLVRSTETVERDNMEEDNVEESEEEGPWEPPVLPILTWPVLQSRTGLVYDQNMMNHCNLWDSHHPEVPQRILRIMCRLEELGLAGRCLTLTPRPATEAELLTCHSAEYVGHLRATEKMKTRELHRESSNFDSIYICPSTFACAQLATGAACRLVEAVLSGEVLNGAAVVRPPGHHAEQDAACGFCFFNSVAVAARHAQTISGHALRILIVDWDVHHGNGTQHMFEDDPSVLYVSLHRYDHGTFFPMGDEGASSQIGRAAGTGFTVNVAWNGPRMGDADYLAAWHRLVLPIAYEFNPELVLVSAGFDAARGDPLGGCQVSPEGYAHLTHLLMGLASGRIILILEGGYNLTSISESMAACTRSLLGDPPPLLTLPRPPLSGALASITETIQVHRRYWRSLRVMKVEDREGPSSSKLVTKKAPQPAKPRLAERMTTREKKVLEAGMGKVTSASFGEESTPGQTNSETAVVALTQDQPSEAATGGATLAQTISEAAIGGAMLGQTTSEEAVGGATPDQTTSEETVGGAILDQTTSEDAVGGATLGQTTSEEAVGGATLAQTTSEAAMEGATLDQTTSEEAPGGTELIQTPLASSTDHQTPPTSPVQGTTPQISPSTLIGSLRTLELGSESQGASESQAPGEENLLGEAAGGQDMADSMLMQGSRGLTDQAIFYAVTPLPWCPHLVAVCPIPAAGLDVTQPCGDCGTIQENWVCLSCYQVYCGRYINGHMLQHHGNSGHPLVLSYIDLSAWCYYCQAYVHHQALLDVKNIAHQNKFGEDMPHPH

NB1 = assay: Antiproliferative activity against human NB-1 cells assessed as reduction in cell viability incubated for 72 hrs by cell-titer Glo assay; type: functional, cell-based; details: NB1, 72 h
CHP-134 = assay: Antiproliferative activity against human CHP134 cells assessed as reduction in cell viability incubated for 72 hrs by cell-titer Glo assay; type: functional, cell-based; details: CHP-134, 72 h
G55T2 [3] = assay: Cell cycle arrest in human G55T2 cells assessed as accumulation in subG0 phase at 1 uM incubated for 72 hrs by propidium iodide based flow cytometry (reference value: 4.5 %); type: functional
G55T2 [4] = assay: Cell cycle arrest in human G55T2 cells assessed as accumulation in G2/M phase at 3 uM incubated for 72 hrs by propidium iodide based flow cytometry (reference value: 26.8 %); type: functional
G55T2 [5] = assay: Cell cycle arrest in human G55T2 cells assessed as accumulation in S phase at 1 uM incubated for 72 hrs by propidium iodide based flow cytometry (reference value: 14.7 %); type: functional
G55T2 [6] = assay: Cell cycle arrest in human G55T2 cells assessed as accumulation in subG0 phase at 3 uM incubated for 72 hrs by propidium iodide based flow cytometry (reference value: 4.5 %); type: functional
G55T2 [7] = assay: Cell cycle arrest in human G55T2 cells assessed as accumulation in G2/M phase at 1 uM incubated for 72 hrs by propidium iodide based flow cytometry (reference value: 26.8 %); type: functional
G55T2 [8] = assay: Cell cycle arrest in human G55T2 cells assessed as accumulation in G0/G1 phase at 3 uM incubated for 72 hrs by propidium iodide based flow cytometry (reference value: 49.9 %); type: functional
G55T2 [9] = assay: Cell cycle arrest in human G55T2 cells assessed as accumulation in G0/G1 phase at 1 uM incubated for 72 hrs by propidium iodide based flow cytometry (reference value: 49.9 %); type: functional
G55T2 [10] = assay: Cell cycle arrest in human G55T2 cells assessed as accumulation in S phase at 3 uM incubated for 72 hrs by propidium iodide based flow cytometry (reference value: 14.7 %); type: functional

IC50 (Histone deacetylase 1) | IC50 (SK-N-AS) | IC50 [2] | SMILES | IC50 (G55T2 [1]) | IC50 (IMR-32) | IC50 (NB1) | IC50 (CHP-134) | Activity (G55T2 [3]) | Activity (G55T2 [4]) | Activity (G55T2 [5]) | Activity (G55T2 [6]) | Activity (G55T2 [7]) | Activity (G55T2 [8]) | Activity (G55T2 [9]) | Activity (G55T2 [10])
2100 nM |  |  | O=C(NO)c1ccc(CC(=O)N(CCO)c2ccccc2)cc1 |  |  |  |  |  |  |  |  |  |  |  | 
27.5 nM | 620 nM | 10.7 nM | Cc1ccc(NC(=O)CCN(Cc2ccc(C(=O)NO)cc2)C(=O)c2ccccc2)cc1 | 540 nM | 550 nM | 1480 nM | 1160 nM |  |  |  |  |  |  |  | 
43 nM | 220 nM | 31.1 nM | Cc1ccc(NC(=O)CCN(Cc2ccc(C(=O)NO)cc2)C(=O)c2cc(C)cc(C)c2)cc1 | 370 nM | 210 nM | 670 nM | 380 nM | 3.5% | 31.1% | 13.2% | 23.3% | 29.1% | 30.2% | 52.3% | 9.8%
128 nM | 1860 nM | 20.5 nM | Cc1cc(C)cc(C(=O)N(CCC(=O)NCc2ccccc2)Cc2ccc(C(=O)NO)cc2)c1 | 4250 nM | 1390 nM | 3870 nM | 2030 nM |  |  |  |  |  |  |  | 
14.7 nM | 1420 nM | 14.8 nM | CN(C)c1ccc(C(=O)N(CCC(=O)NCc2ccccc2)Cc2ccc(C(=O)NO)cc2)cc1 | 1150 nM | 840 nM | 1720 nM | 1160 nM |  |  |  |  |  |  |  | 
12.9 nM | 400 nM | 19.5 nM | Cc1ccc(NC(=O)CCN(Cc2ccc(C(=O)NO)cc2)C(=O)c2ccc(N(C)C)cc2)cc1 | 330 nM | 300 nM | 660 nM | 540 nM |  |  |  |  |  |  |  | 
16.1 nM | 910 nM | 16.7 nM | Cc1ccc(C(=O)N(CCC(=O)NCc2ccccc2)Cc2ccc(C(=O)NO)cc2)cc1 | 690 nM | 630 nM | 1610 nM | 1100 nM |  |  |  |  |  |  |  | 
41.9 nM | 1740 nM | 25.3 nM | COc1ccc(C(=O)N(CCC(=O)NCc2ccccc2)Cc2ccc(C(=O)NO)cc2)cc1 | 3490 nM | 1090 nM | 2520 nM | 1900 nM |  |  |  |  |  |  |  | 
147 nM | 9470 nM | 26 nM | COc1cc(OC)cc(C(=O)N(CCC(=O)NCc2ccccc2)Cc2ccc(C(=O)NO)cc2)c1 | 14700 nM | 6040 nM | 13300 nM | 12300 nM |  |  |  |  |  |  |  | 
134 nM | 3310 nM | 12.5 nM | O=C(CCN(Cc1ccc(C(=O)NO)cc1)C(=O)c1ccccc1)NCc1ccccc1 | 5940 nM | 2360 nM | 6660 nM | 4680 nM |  |  |  |  |  |  |  | 
27.8 nM | 340 nM | 14.4 nM | Cc1ccc(CNC(=O)CCN(Cc2ccc(C(=O)NO)cc2)C(=O)c2ccc(N(C)C)cc2)cc1 | 430 nM | 260 nM | 700 nM | 420 nM |  |  |  |  |  |  |  | 
21.2 nM | 390 nM | 10 nM | CN(C)c1ccc(C(=O)N(CCC(=O)NCc2ccc(Cl)cc2)Cc2ccc(C(=O)NO)cc2)cc1 | 460 nM | 310 nM | 850 nM | 610 nM |  |  |  |  |  |  |  | 
 |  |  | O=C(CCCCCCC(=O)Nc1ccccc1)NO [VORINOSTAT] |  |  |  |  |  | 28.9% |  | 24.8% |  | 31.3% |  | 8.1%
